Assay results: PMC11188874, “HDAC6 Inhibition Releases HR23B to Activate Proteasomes, Expand the Tumor Immunopeptidome and Amplify T-cell Antimyeloma Activity” (Cancer Research Communications, 2024)

Columns and labels:
RPMI-8226 cells = assay: Myeloma MHC-I immunopeptidome analysis by MS; type: cell-based, human; settings: BTZ, 18 hours
RPMI8226 cells [1] = assay: Aggresome formation (Proteostat kit, flow cytometry); type: cell-based, human; settings: 16 h
E.G7-Ova cells = assay: Quantitation of […]–MHC-I complex by flow cytometry; type: cell-based, mouse
[2] = tested on: proteasome ChT-like activity in RPMI-8226 cells; assay: Cell-based high-throughput screen of proteasome ChT-like activity (LLVY-R110); set-up: species or system human; settings: 3 µmol/L, 21 hours, then LLVY-R110 18 hours
RPMI8226 cells [3] = assay: Autophagosome formation (Cyto-ID kit, flow cytometry); type: cell-based, human; settings: 16 h
SIRT2 = molecular target: T1, SIRT2 (Homo sapiens, UniProt Q8IXJ6); assay: In vitro biochemical activity assay, SIRT2; settings: 10-dose, 3-fold serial dilution; fluorogenic peptide p53 residues 379-382 and NAD
T1 construct: purchased Reaction Biology (Malvern, PA)
T1 sequence (Q8IXJ6 1-389): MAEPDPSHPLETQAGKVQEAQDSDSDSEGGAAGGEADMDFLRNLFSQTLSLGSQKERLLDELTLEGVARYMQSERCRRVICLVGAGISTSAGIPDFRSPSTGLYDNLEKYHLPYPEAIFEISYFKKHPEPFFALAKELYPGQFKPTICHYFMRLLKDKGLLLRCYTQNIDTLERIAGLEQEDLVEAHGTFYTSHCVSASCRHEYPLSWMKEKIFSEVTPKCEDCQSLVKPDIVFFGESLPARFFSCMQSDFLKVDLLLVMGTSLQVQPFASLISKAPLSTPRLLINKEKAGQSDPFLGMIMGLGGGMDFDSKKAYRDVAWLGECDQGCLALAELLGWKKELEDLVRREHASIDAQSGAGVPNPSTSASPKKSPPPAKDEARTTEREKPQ

Row | Structure (SMILES) | global peak intensity of peptides (in words) (RPMI-8226 cells) | number of peptides decreased by at least 20-fold (RPMI-8226 cells) | number of peptides with 2-fold or greater decrease (RPMI-8226 cells) | formation of aggresomes (RPMI8226 cells [1]) | SIINFEKL–MHC-I complex presentation (in words) (E.G7-Ova cells) | Fold-Decrease of proteasome ChT-like activity in the HTS [2] | formation of autophagosomes (RPMI8226 cells [3]) | IC50 (SIRT2)
1 | CC(C)C[C@H](NC(=O)[C@H](Cc1ccccc1)NC(=O)c1cnccn1)B(O)O [Bortezomib] | slightly decreased | seven | 1,707 peptides | increased | reduced | 4 fold | increased | 
2 | Cc1ccc(C(=O)Nc2ccc(S(=O)(=O)O)c3cc(S(=O)(=O)O)cc(S(=O)(=O)O)c23)cc1NC(=O)c1cccc(NC(=O)Nc2cccc(C(=O)Nc3cc(C(=O)Nc4ccc(S(=O)(=O)O)c5cc(S(=O)(=O)O)cc(S(=O)(=O)O)c45)ccc3C)c2)c1 [Suramin] |  |  |  |  |  |  |  | 24.3 µM
